This assay has as its target T1, human CGRP receptor (Homo sapiens, UniProt O60894+Q16602).
T1 construct: SK-N-MC cells are cultivated in “Dulbecco's modified Eagle medium”; endogenous in cells; host or cells: SK-N-MC cells (membrane homogenate)
As to the kind of experiment: Binding studies with SK-N-MC cells (expressing the human CGRP receptor). The settings on record: SK-N-MC cell membranes, displacement of 125I-iodotyrosyl-CGRP. The procedure:
A. Binding Studies with SK-N-MC Cells (Expressing the Human CGRP Receptor)
SK-N-MC cells are cultivated in “Dulbecco's modified Eagle medium”. The medium is removed from confluent cultures. The cells are washed twice with PBS buffer (Gibco 041-04190 M), detached by the addition of PBS buffer mixed with 0.02% EDTA, and isolated by centrifuging. After resuspension in 20 ml of “Balanced Salts Solution” [BSS (in mM): NaCl 120, KCl 5.4, NaHCO3 16.2, MgSO4 0.8, NaHPO4 1.0, CaCl2 1.8, D-glucose 5.5, HEPES 30, pH 7.40] the cells are centrifuged twice at 100×g and resuspended in BSS. After the number of cells has been determined, the cells are homogenised using an Ultra-Turrax and centrifuged for 10 minutes at 3000×g. The supernatant is discarded and the pellet is recentrifuged in Tris buffer (10 mM Tris, 50 mM NaCl, 5 mM MgCl2, 1 mM EDTA, pH 7.40) enriched with 1% bovine serum albumin and 0.1% bacitracin, and resuspended (1 ml/1000000 cells). The homogenised product is frozen at −80° C. The membrane preparations are stable for more than 6 weeks under these conditions.
After thawing, the homogenised product is diluted 1:10 with assay buffer (50 mM Tris, 150 mM NaCl, 5 mM MgCl2, 1 mM EDTA, pH 7.40) and homogenised for 30 seconds with an Ultra-Turrax. 230 μl of the homogenised product are incubated for 180 minutes at ambient temperature with 50 pM ^125I-iodotyrosyl-Calcitonin-Gene-Related Peptide (Amersham) and increasing concentrations of the test substances in a total volume of 250 μl. The incubation is ended by rapid filtration through GF/B glass fibre filters treated with polyethyleneimine (0.1%) using a cell harvester. The protein-bound radioactivity is measured using a gamma counter. Non-specific binding is defined as the bound radioactivity after the presence of 1 μM human CGRP-alpha during incubation.
The concentration binding curves are analysed using computer-aided non-linear curve fitting.
For orientation: In a radioligand displacement assay an active substance lowers the binding of a labelled ligand.

Structures are written as SMILES.

T1 sequence (Q16602 23-461): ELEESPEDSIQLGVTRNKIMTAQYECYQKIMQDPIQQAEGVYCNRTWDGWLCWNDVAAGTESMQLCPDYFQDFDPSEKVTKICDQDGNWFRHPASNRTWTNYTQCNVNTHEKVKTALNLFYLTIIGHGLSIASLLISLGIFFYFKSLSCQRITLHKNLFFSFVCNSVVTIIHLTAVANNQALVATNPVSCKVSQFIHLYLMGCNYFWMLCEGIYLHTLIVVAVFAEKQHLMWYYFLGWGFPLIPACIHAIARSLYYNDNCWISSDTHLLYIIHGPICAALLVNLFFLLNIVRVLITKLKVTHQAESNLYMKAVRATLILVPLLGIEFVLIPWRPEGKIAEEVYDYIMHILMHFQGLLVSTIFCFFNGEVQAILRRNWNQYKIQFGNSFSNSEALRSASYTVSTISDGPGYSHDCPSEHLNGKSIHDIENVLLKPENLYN
T1 sequence (O60894 27-148): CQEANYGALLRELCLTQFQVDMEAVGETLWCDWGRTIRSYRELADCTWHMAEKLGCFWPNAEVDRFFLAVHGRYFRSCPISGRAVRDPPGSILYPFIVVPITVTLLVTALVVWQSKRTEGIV

For orientation: Ki means the equilibrium dissociation constant of an inhibitor or competing ligand from its target. In the case of `Cc1cc(C(=O)c2cc(N3CCC(n4c(=O)[nH]c5ncccc54)CC3)ncn2)cc2oc(=O)[nH]c12` [(1)], affinity was put at a Ki of 0.4 nM.
Molecule `Cc1cc(C(=O)c2cc(N3CCC(n4nc(-c5ccccc5)[nH]c4=O)CC3)ncn2)cc2oc(=O)[nH]c12` [(3)] showed a Ki of 4 nM.
`Cc1cc(C(=O)c2cc(N3CCC(n4c(=O)[nH]c5c6ccccc6ncc54)CC3)ncn2)cc2oc(=O)[nH]c12` [(4)]: the affinity, expressed as Ki, was 1 nM.

For the origin of these results see US8629137B2, “CGRP antagonists” (Boehringer Ingelheim International GmbH, priority 2007, dated 2014).
